According to patent publication US20240408169A1 (priority 2023, published 2024):
*1 amine or outer side, *2 acyl side, *3 side chain or, on linkers, in order; H or OH if unused. Where a SMILES comes first, the peptide text is derived from it. Bridges are numbered along the chain shown (N, C = ends). [ ]: non-standard residue; d: D form. The star is where a group is joined. NMePhe(2-(4-MorPh),5-Cl) = CN[C@@H](Cc1cc(Cl)ccc1-c1ccc(N2CCOCC2)cc1)C(=O)O; X121 = C[C@@H]1CN(c2ccc(-c3ccc(Cl)cc3C[C@@H](C(=O)[*:2])N(C)[*:1])cc2)CCO1; X169 = CN([C@@H](Cc1cc(Cl)ccc1-c1ccc(-c2cnn3c2COCC3)cc1)C(=O)[*:2])[*:1]; X179 = CN([C@@H](Cc1cc(Cl)ccc1-c1ccc(N2CCOCC2)c(C#N)c1)C(=O)[*:2])[*:1]; X144 = CN([C@@H](Cc1cc(Cl)ccc1-c1ccc(N2CC(C)(F)C2)nc1)C(=O)[*:2])[*:1]; X191 = CN([C@@H](Cc1cc(Cl)ccc1-c1ccc(N2CCOCC2)c(F)c1F)C(=O)[*:2])[*:1]; X212 = CN1CCC(Oc2ccc(-c3ccc(Cl)cc3C[C@@H](C(=O)[*:2])N(C)[*:1])cn2)CC1; X145 = CN1CCN(c2ccc(-c3ccc(F)cc3C[C@@H](C(=O)[*:2])N(C)[*:1])cc2F)CC1; X140 = CN([C@@H](Cc1cc(Cl)ccc1-c1ccc(Oc2cccnc2)cc1)C(=O)[*:2])[*:1]; X186 = CN([C@@H](Cc1cc(Cl)ccc1-c1ccc(N2CCOCC2)cn1)C(=O)[*:2])[*:1]; NMehhhLys(Me) = CN([C@@H](CCCCCCCN(C)[*:3])C(=O)[*:2])[*:1]; X156 = CN([C@@H](Cc1cc(Cl)cc2ccccc12)C(=O)[*:2])[*:1]; X132 = CN([C@@H](Cc1cc(Cl)cc2ccoc12)C(=O)[*:2])[*:1]; X143 = CN([C@@H](Cc1cc(F)cc2cccnc12)C(=O)[*:2])[*:1]; cBuCO(3,3-F2-1-CF3) = O=C(C1(C(F)(F)F)CC(F)(F)C1)*; X173 = CN([C@@H](Cc1cc(Cl)cs1)C(=O)[*:2])[*:1]; X182 = N#Cc1ccc(CC[C@H](N[*:1])C(=O)[*:2])cn1; Pro(trans-4-F) = O=C(O)[C@@H]1C[C@@H](F)CN1; Gly(cPr) = N[C@H](C(=O)O)C1CC1

Experiments:
CyclinA2/CDK2 = biological target: T1, CyclinA2/CDK2 (Homo sapiens, UniProt P20248); experiment: Fluorescence Polarization (FP) competitive binding assay, Cyclin A2/Cdk2; details: 8 nM Cyclin A2/Cdk2, 2 nM FAM probe; average of 2-3 independent experiments; read-out: Cyclin A FP IC50;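 note: plates equilibrated two hours at room temperature before polarization reading, IC50 fitted from eight-concentration compound titration curves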
T1 construct: purchased CRELUX Protein Services

CyclinB1/CDK1 = biological target: T2, CyclinB1/CDK1 (Homo sapiens, UniProt P14635); experiment: Fluorescence Polarization (FP) competitive binding assay, Cyclin B1/Cdk1; details: 10 nM Cyclin B1/Cdk1, 2 nM FAM probe; average of 2-3 independent experiments; read-out: Cyclin B FP IC50;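 note: fluorescence polarization read after equilibration at room temperature, with IC50 taken from serially diluted dose-response curves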
T2 construct: purchased Eurofins, discovery 14-450

CyclinE1/CDK2 = biological target: T3, CyclinE1/CDK2 (Homo sapiens, UniProt P24864); experiment: Fluorescence Polarization (FP) competitive binding assay, Cyclin E1/Cdk2; details: 10 nM Cyclin E1/Cdk2, 2 nM FAM probe; average of 2-3 independent experiments; read-out: Cyclin E FP IC50;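 note: readings taken after two-hour equilibration at room temperature in HEPES buffer with NaCl, DTT, NP-40 and BSA, IC50 fitted from eight-concentration serial dilution series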
T3 construct: purchased Eurofins, discovery 14-475

NCI-H1048 cells = experiment: MTT proliferation assay, NCI-H1048; assay type: cell-based; details: 5 days compound exposure, 1:3 serial dilution starting at 10 μM;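 note: Dose-response in 96-well plates over 8 or 10 concentration points, with exposure spanning 3-4 cell doublings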
OVCAR3 cells = experiment: MTT proliferation assay, OVCAR3; assay type: cell-based; details: 5 days compound exposure, 1:3 serial dilution starting at 10 μM;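 note: compound given as an 8- or 10-point series, one day after plating, with exposure covering roughly 3-4 cell doublings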

Structure (SMILES) | IC50 (CyclinA2/CDK2) | IC50 (CyclinB1/CDK1) | IC50 (CyclinE1/CDK2) | GI50 (NCI-H1048 cells) | GI50 (OVCAR3 cells)
CC(C)C[C@@H]1NC(=O)[C@@H](N(C)C(=O)[C@@H](NC(=O)[C@@H]2C[C@@H](F)CN2C(=O)C2(C(F)(F)F)CC(F)(F)C2)C2CC2)CCCCCCCN(C)C(=O)[C@H](Cc2cc(Cl)ccc2-c2ccc(-c3cnn4c3COCC4)cc2)N(C)C1=O [Example 378] ({cBuCO(3,3-F2-1-CF3)}-[Pro(trans-4-F)][Gly(cPr)][NMehhhLys(Me)]L[X169]; lactam 3-C) | 20 nM | 20 nM | 1120 nM | 10 nM | 20 nM
CC(C)C[C@@H]1NC(=O)[C@@H](N(C)C(=O)[C@@H](NC(=O)[C@@H]2C[C@@H](F)CN2C(=O)C2(C(F)(F)F)CC(F)(F)C2)C2CC2)CCCCCCCN(C)C(=O)[C@H](Cc2cc(Cl)ccc2-c2ccc(N3CCOCC3)c(C#N)c2)N(C)C1=O [Example 379] ({cBuCO(3,3-F2-1-CF3)}-[Pro(trans-4-F)][Gly(cPr)][NMehhhLys(Me)]L[X179]; lactam 3-C) | 30 nM | 20 nM | 2730 nM | 30 nM | 20 nM
CC(C)C[C@@H]1NC(=O)[C@@H](N(C)C(=O)[C@@H](NC(=O)[C@@H]2C[C@@H](F)CN2C(=O)C2(C(F)(F)F)CC(F)(F)C2)C2CC2)CCCCCCCN(C)C(=O)[C@H](Cc2cc(Cl)ccc2-c2ccc(N3CCOCC3)cn2)N(C)C1=O [Example 382] ({cBuCO(3,3-F2-1-CF3)}-[Pro(trans-4-F)][Gly(cPr)][NMehhhLys(Me)]L[X186]; lactam 3-C) | 40 nM | 20 nM | 2490 nM | 90 nM | 40 nM
CC(C)C[C@@H]1NC(=O)[C@@H](N(C)C(=O)[C@@H](NC(=O)[C@@H]2C[C@@H](F)CN2C(=O)C2(C(F)(F)F)CC(F)(F)C2)C2CC2)CCCCCCCN(C)C(=O)[C@H](Cc2cc(Cl)ccc2-c2ccc(Oc3cccnc3)cc2)N(C)C1=O [Example 385] ({cBuCO(3,3-F2-1-CF3)}-[Pro(trans-4-F)][Gly(cPr)][NMehhhLys(Me)]L[X140]; lactam 3-C) | 20 nM | 20 nM | 1630 nM | 30 nM | 20 nM
CC(C)C[C@@H]1NC(=O)[C@@H](N(C)C(=O)[C@@H](NC(=O)[C@@H]2C[C@@H](F)CN2C(=O)C2(C(F)(F)F)CC(F)(F)C2)C2CC2)CCCCCCCN(C)C(=O)[C@H](Cc2cc(Cl)ccc2-c2ccc(N3CCOCC3)c(F)c2F)N(C)C1=O [Example 386] ({cBuCO(3,3-F2-1-CF3)}-[Pro(trans-4-F)][Gly(cPr)][NMehhhLys(Me)]L[X191]; lactam 3-C) | 20 nM | 20 nM | 900 nM | 30 nM | 20 nM
CC(C)C[C@@H]1NC(=O)[C@@H](N(C)C(=O)[C@@H](NC(=O)[C@@H]2C[C@@H](F)CN2C(=O)C2(C(F)(F)F)CC(F)(F)C2)C2CC2)CCCCCCCN(C)C(=O)[C@H](Cc2cc(Cl)cc3ccoc23)N(C)C1=O [Example 394] ({cBuCO(3,3-F2-1-CF3)}-[Pro(trans-4-F)][Gly(cPr)][NMehhhLys(Me)]L[X132]; lactam 3-C) | 150 nM | 20 nM | 500 nM | 90 nM | 50 nM
CC(C)C[C@@H]1NC(=O)[C@@H](N(C)C(=O)[C@@H](NC(=O)[C@@H]2C[C@@H](F)CN2C(=O)C2(C(F)(F)F)CC(F)(F)C2)C2CC2)CCCCCCCN(C)C(=O)[C@H](Cc2cc(Cl)ccc2-c2ccc(OC3CCN(C)CC3)nc2)N(C)C1=O [Example 396] ({cBuCO(3,3-F2-1-CF3)}-[Pro(trans-4-F)][Gly(cPr)][NMehhhLys(Me)]L[X212]; lactam 3-C) | 30 nM | 20 nM | 2530 nM | 20 nM | 10 nM
CC(C)C[C@@H]1NC(=O)[C@@H](N(C)C(=O)[C@@H](NC(=O)[C@@H]2C[C@@H](F)CN2C(=O)C2(C(F)(F)F)CC(F)(F)C2)C2CC2)CCCCCCCN(C)C(=O)[C@H](Cc2cc(F)ccc2-c2ccc(N3CCN(C)CC3)c(F)c2)N(C)C1=O [Example 401] ({cBuCO(3,3-F2-1-CF3)}-[Pro(trans-4-F)][Gly(cPr)][NMehhhLys(Me)]L[X145]; lactam 3-C) | 20 nM | 20 nM | 380 nM | 10 nM | 10 nM
CC(C)C[C@@H]1NC(=O)[C@@H](N(C)C(=O)[C@@H](NC(=O)[C@@H]2C[C@@H](F)CN2C(=O)C2(C(F)(F)F)CC(F)(F)C2)C2CC2)CCCCCCCN(C)C(=O)[C@H](Cc2cc(Cl)ccc2-c2ccc(N3CC(C)(F)C3)nc2)N(C)C1=O [Example 402] ({cBuCO(3,3-F2-1-CF3)}-[Pro(trans-4-F)][Gly(cPr)][NMehhhLys(Me)]L[X144]; lactam 3-C) | 20 nM | 20 nM | 960 nM | 40 nM | 10 nM
CCN1CCCCCCC[C@H](N(C)C(=O)[C@@H](NC(=O)[C@@H]2C[C@@H](F)CN2C(=O)C2(C(F)(F)F)CC(F)(F)C2)C2CC2)C(=O)N[C@@H](CC(C)C)C(=O)N(C)[C@@H](Cc2cc(Cl)ccc2-c2ccc(N3CCOCC3)cc2)C1=O [Example 404] | 20 nM | 20 nM | 1530 nM | 20 nM | 30 nM
CC(C)C[C@@H]1NC(=O)[C@@H](N(C)C(=O)[C@@H](NC(=O)[C@@H]2C[C@@H](F)CN2C(=O)C2(C(F)(F)F)CC(F)(F)C2)C2CC2)CCCCCCCN(C)C(=O)[C@H](Cc2cc(Cl)ccc2-c2ccc(N3CCO[C@H](C)C3)cc2)N(C)C1=O [Example 414] ({cBuCO(3,3-F2-1-CF3)}-[Pro(trans-4-F)][Gly(cPr)][NMehhhLys(Me)]L[X121]; lactam 3-C) | 30 nM | 20 nM | 940 nM | 10 nM | 10 nM
CC(C)C[C@@H]1NC(=O)[C@@H](N(C)C(=O)[C@H](CCc2ccc(C#N)nc2)NC(=O)[C@@H]2C[C@@H](F)CN2C(=O)C2(C(F)(F)F)CC(F)(F)C2)CCCCCCCN(C)C(=O)[C@H](Cc2cc(Cl)ccc2-c2ccc(N3CCOCC3)cc2)N(C)C1=O [Example 416] ({cBuCO(3,3-F2-1-CF3)}-[Pro(trans-4-F)][X182][NMehhhLys(Me)]L[NMePhe(2-(4-MorPh),5-Cl)]; lactam 3-C) | 40 nM | 20 nM | 3980 nM | 30 nM | 40 nM
CC(C)C[C@@H]1NC(=O)[C@@H](N(C)C(=O)[C@H](CCC(=O)O)NC(=O)[C@@H]2C[C@@H](F)CN2C(=O)C2(C(F)(F)F)CC(F)(F)C2)CCCCCCCN(C)C(=O)[C@H](Cc2cc(Cl)ccc2-c2ccc(N3CCOCC3)cc2)N(C)C1=O [Example 418] ({cBuCO(3,3-F2-1-CF3)}-[Pro(trans-4-F)]E[NMehhhLys(Me)]L[NMePhe(2-(4-MorPh),5-Cl)]; lactam 3-C) | 120 nM | 20 nM | 5260 nM | 1420 nM | 1150 nM
CC(C)C[C@@H]1NC(=O)[C@@H](N(C)C(=O)[C@@H](NC(=O)[C@@H]2C[C@@H](F)CN2C(=O)C2(C(F)(F)F)CC(F)(F)C2)C2CC2)CCCCCCCN(C)C(=O)[C@H](Cc2cc(F)cc3cccnc23)N(C)C1=O [Example 423] ({cBuCO(3,3-F2-1-CF3)}-[Pro(trans-4-F)][Gly(cPr)][NMehhhLys(Me)]L[X143]; lactam 3-C) | 720 nM | 20 nM | 710 nM | 200 nM | 70 nM
CC(C)C[C@@H]1NC(=O)[C@@H](N(C)C(=O)[C@@H](NC(=O)[C@@H]2C[C@@H](F)CN2C(=O)C2(C(F)(F)F)CC(F)(F)C2)C2CC2)CCCCCCCN(C)C(=O)[C@H](Cc2cc(Cl)cc3ccccc23)N(C)C1=O [Example 425] ({cBuCO(3,3-F2-1-CF3)}-[Pro(trans-4-F)][Gly(cPr)][NMehhhLys(Me)]L[X156]; lactam 3-C) | 150 nM | 20 nM | 210 nM | 160 nM | 240 nM
CC(C)C[C@@H]1NC(=O)[C@@H](N(C)C(=O)[C@@H](NC(=O)[C@@H]2C[C@@H](F)CN2C(=O)C2(C(F)(F)F)CC(F)(F)C2)C2CC2)CCCCCCCN(C)C(=O)[C@H](Cc2cc(Cl)cs2)N(C)C1=O [Example 426] ({cBuCO(3,3-F2-1-CF3)}-[Pro(trans-4-F)][Gly(cPr)][NMehhhLys(Me)]L[X173]; lactam 3-C) | 110 nM | 20 nM | 2060 nM | 90 nM | 150 nM
